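Cultured in 96-well plates, cells were exposed to test compound for 48 hours across five concentrations. Abbreviation: GI50, concentration required for 50% inhibition of growth. TGI denotes the concentration required for complete inhibition of growth.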
What was measured:
Experiment in all cases: NCI-60 cell line screen, 48 h
[1] = tested on: EKVX NSCLC
[2] = tested on: HL-60(TB) leukemia
[3] = tested on: HS 578T breast
[4] = tested on: M14 melanoma
[5] = tested on: NCI-H23 lung
[6] = tested on: OVCAR-3 ovarian
[7] = tested on: SF-268 CNS
[8] = tested on: SF-295 CNS
[9] = tested on: SN12C renal
[10] = tested on: T-47D breast

SMILES | TGI [1] [µM] | TGI [2] [µM] | TGI [3] [µM] | TGI [4] [µM] | TGI [5] [µM] | TGI [6] [µM] | TGI [7] [µM] | TGI [8] [µM] | TGI [9] [µM] | TGI [10] [µM] | GI50 [1] [µM] | GI50 [2] [µM] | GI50 [3] [µM] | GI50 [4] [µM] | GI50 [5] [µM] | GI50 [6] [µM] | GI50 [7] [µM] | GI50 [8] [µM] | GI50 [9] [µM]
O=C(C=P(c1ccccc1)(c1ccccc1)c1ccccc1)c1cccc(-c2cccc([N+](=O)[O-])c2)c1 | > 100 | 4.82 | > 100 | > 100 | 26.4 | > 100 | > 100 | 35.3 | > 100 | > 100 | – | – | – | – | – | – | – | – | –
Cc1nc2c(n1C)C(=O)c1nc(CBr)[nH]c(=O)c1C2=O | 54.9 | > 100 | – | > 100 | > 100 | – | > 100 | 5.27 | > 100 | – | – | – | – | – | – | – | – | – | –
Nc1ccc(-c2cssc2=S)cc1 | > 100 | 62.5 | > 100 | > 100 | – | – | > 100 | > 100 | 94.6 | – | – | – | – | – | – | – | – | – | –
COc1ccc2c(c1)CCN=C2Cc1cc(OC)c(OC)cc1CCCl | > 100 | – | 81.7 | > 100 | > 100 | > 100 | > 100 | > 100 | > 100 | > 100 | – | – | – | – | – | – | – | – | –
N#Cc1c(NC(=S)Nc2ccc(Cl)cc2)sc2c1CCCC2 | > 100 | > 100 | – | – | > 100 | > 100 | > 100 | > 100 | 50.4 | > 100 | – | – | – | – | – | – | – | – | –
OC1(c2ccc(Cl)cc2)c2c(ccc3c2OCO3)C2=NCCN21 (stereo not drawn) | > 100 | > 100 | 76.7 | 30.8 | > 100 | > 100 | > 100 | > 100 | > 100 | > 100 | – | – | – | – | – | – | – | – | –
COc1ccc(C2CC(c3cccc(Nc4ccncc4)c3)=NN2c2ccc(Cl)cc2)cc1 (stereo not drawn) | 3.27 | 4.06 | 3.68 | 3.24 | 3.43 | 3.15 | 3.43 | 3.3 | 3.07 | – | 1.66 | 1.91 | 1.77 | 1.61 | 1.81 | 1.67 | 1.72 | 1.85 | 1.6
CC(=O)Oc1c(C)c2c(O)c3c1C1=C(OCOC1=C(C)C3=O)/C(C)=C\C(C)(O)C(O)C(C)C(O)C1C(=O)OC(C(C)C1O)C(C)(O)/C=C/C=C(C)C(=O)N2 (stereo not drawn) | > 100 | 7.3 | > 100 | > 100 | > 100 | > 100 | > 100 | > 100 | > 100 | > 100 | – | – | – | – | – | – | – | – | –
O=C(N/N=C(/COc1ccc(Cl)cc1)N=Cc1cccnc1)c1ccncc1 | > 100 | > 100 | 94.9 | > 100 | > 100 | > 100 | > 100 | > 100 | > 100 | > 100 | – | – | – | – | – | – | – | – | –
COCO[C@@H]1C[C@H]2C(=O)N(COC)c3ccccc3C(=O)N2C1 | > 100 | > 100 | > 100 | > 100 | > 100 | – | > 100 | > 100 | > 100 | > 100 | – | – | – | – | – | – | – | – | –
CC(=O)c1c(SCCN2CCCC2)n(-c2ccccc2)c(=S)n(-c2ccccc2)c1=O | 37.3 | 6.93 | 54.2 | 6.63 | 37.4 | 7.22 | 33.2 | > 100 | 20.5 | 5.42 | – | – | – | – | – | – | – | – | –
CS(=O)(=O)OC1CN2CCC1CC2 (stereo not drawn) | > 100 | > 100 | > 100 | > 100 | > 100 | > 100 | > 100 | > 100 | > 100 | > 100 | – | – | – | – | – | – | – | – | –
C/C(=C\c1ccccc1)C(=O)NCc1ccc(C(=O)NCCC(C)C)cc1 | > 100 | – | – | > 100 | > 100 | > 100 | > 100 | > 100 | > 100 | > 100 | – | – | – | – | – | – | – | – | –
CCN(CC)CCCC(C)Nc1ccnc2cc3ccccc3cc12 (stereo not drawn) | > 100 | 75.9 | > 100 | > 100 | 96.7 | > 100 | 22.1 | 24.6 | > 100 | 89.7 | – | – | – | – | – | – | – | – | –
Cc1cc2c(cc1Cl)SC(c1ccccc1)C(=O)NS2(=O)=O (stereo not drawn) | > 100 | 58.9 | 59.4 | > 100 | 56.2 | 53.4 | > 100 | 95.6 | – | 84.6 | – | – | – | – | – | – | – | – | –
COC(=O)c1cc2c3c(cc(N(C)C)c2[nH]1)N(C(=O)c1cc2cc(OC)c(OC)c(OC)c2[nH]1)CC3CCl (stereo not drawn) | 2.79 | – | – | 0.00848 | – | 0.0136 | 0.127 | 0.226 | 0.384 | 0.642 | – | – | – | – | – | – | – | – | –
CSc1nc(NC2OCC(OC(C)=O)C(OC(C)=O)C2OC(C)=O)c(N=C(C)C(C)=O)c(=O)[nH]1 (stereo not drawn) | > 100 | > 100 | – | > 100 | > 100 | – | > 100 | > 100 | > 100 | – | – | – | – | – | – | – | – | – | –
C#CCn1ncc2c(SC)ncnc21 | > 100 | – | > 100 | > 100 | > 100 | > 100 | > 100 | > 100 | > 100 | > 100 | – | – | – | – | – | – | – | – | –
Cc1cccc2cc3c(ccc4ccccc43)c[n+]12 | > 100 | > 100 | 24.6 | – | 58 | 16.9 | 14.2 | 41.5 | 20.3 | – | – | – | – | – | – | – | – | – | –
CCOC(=O)C[C@@H]1C2(C=C[C@@]13CO3)OCC(C)(C)CO2 | > 100 | > 100 | > 100 | > 100 | > 100 | > 100 | > 100 | > 100 | > 100 | > 100 | – | – | – | – | – | – | – | – | –
N#Cc1c2c(c(Nc3cccc(C(F)(F)F)c3)n3c1nc1ccccc13)CCC2 | > 100 | – | – | – | > 100 | > 100 | > 100 | > 100 | > 100 | > 100 | – | – | – | – | – | – | – | – | –

Source: PubChem BioAssay (NCI)
